Series [1] can be described thus: Liquid state polarisation after liquefaction and neutralization, by liquid state 13C-NMR at 400 MHz. It is filed as physicochemical. Here is the method: In a similar way, the level of polarisation for liquid hyperpolarised samples may be determined by liquid state NMR measurements of the NMR active nucleus in the liquid hyperpolarised sample. Again the signal intensity of the liquid hyperpolarised sample is compared with the signal intensity of the liquid sample before polarisation. The level of polarisation is then calculated from the ratio of the signal intensities of before and after polarisation.
After 150 minutes of dynamic nuclear polarisation, the obtained frozen polarised solution was dissolved in a dissolution medium containing 6 ml of a phosphate buffer (20 mM, pH 6.8, 100 mg/l EDTA), aqueous NaOH (27 μl 12 M solution, 1 eq) and 30 mg NaCl.
After 120 minutes of dynamic nuclear polarisation, the obtained frozen polarised solution was dissolved in a dissolution medium containing 6 ml phosphate buffer (40 mM, pH 7, 100 mg/l EDTA, 0.9% NaCl).

Series [2] is described as follows: Solid state polarisation after DNP, by solid state 13C-NMR. It counts as physicochemical. The note with it: 3.35 T, 93.90 GHz. The method, then: The level of polarisation may for instance be determined by solid state NMR measurements of the NMR nucleus in the frozen hyperpolarised sample. For instance, if the NMR active nucleus in the hyperpolarised sample is ^13C, a solid state ^13C-NMR measurement is carried out. The solid state ^13C-NMR measurement preferably consists of a simple pulse-acquire NMR sequence using a low flip angle. The signal intensity of the hyperpolarised sample in the ^13C-NMR spectrum is compared with signal intensity of the sample in a ^13C-NMR spectrum acquired before the DNP polarisation process. The level of polarisation is then calculated from the ratio of the signal intensities of before and after polarisation.
The probe is inserted into the probe-retaining container, submerged in the liquid helium and irradiated with microwaves, preferably at a frequency of about 94 GHz at 200 mW. The level of polarisation may for instance be monitored by solid state NMR measurements of the NMR active nucleus in the frozen solution comprising the hyperpolarised sample. For instance, if the NMR active nucleus in the hyperpolarised sample is ^13C, a solid state ^13C-NMR measurement is carried out. The solid state ^13C-NMR measurement preferably consists of a simple pulse-acquire NMR sequence using a low flip angle. The signal intensity of the hyperpolarised sample in the ^13C-NMR spectrum is compared with signal intensity of the sample in a ^13C-NMR spectrum acquired before the DNP polarisation process. The level of polarisation is then calculated from the ratio of the signal intensities of before and after polarisation.
32.5 mg (0.258 mmol) of the ^13C1-alanine hydrochloride obtained in Example 1a was added to 42 mg of a stock solution in a micro test tube. The stock solution had been prepared by dissolving the DNP agent (trityl radical) tris(8-carboxy-2,2,6,6-(tetra(hydroxyethyl)-benzo-[1,2-4,5′]-bis-(1,3)-dithiole-4-yl)-methyl sodium salt which had been synthesised according to Example 7 of WO-A1-98/39277 and the paramagnetic metal ion (Gd-chelate of 1,3,5-tris-(N-(DO3A-acetamido)-N-methyl-4-amino-2-methylphenyl)-[1,3,5]triazinane-2,4,6-trione) which had been synthesised according to Example 4 of WO-A-2007/064226 in glycerol in such a way that a glycerol solution being 26 mM in trityl radical and 0.52 mM in Gd-chelate had been obtained. The resulting composition was sonicated to dissolve the ^13C1-alanine hydrochloride and produce a clear solution. […] The frozen solution was polarised under DNP conditions at 1.2 K in a 3.35 T magnetic field under irradiation with microwave (93.90 GHz). Polarisation was followed by solid state ^13C-NMR and the solid state polarisation was determined to be 40%.
^13C1-glutamine (45.5 mg, 0.30 mmol, Cambridge Isotopes) was weighted into a micro test tube and dissolved in 23.5 μl water and 25 μl aqueous NaOH (12 M). The mixture was sonicated and gently heated to produce a clear solution. To the solution was added 5.7 mg of an aqueous solution of tris(8-carboxy-2,2,6,6-(tetra(hydroxyethyl)-benzo-[1,2-4,5′]-bis-(1,3)-dithiole-4-yl)-methyl sodium salt (trityl radical; 139 μmol/g solution) and 2.1 mg of an aqueous solution of the Gd-chelate of 1,3,5-tris-(N-(DO3A-acetamido)-N-methyl-4-amino-2-methylphenyl)-[1,3,5]triazinane-2,4,6-trione) (paramagnetic metal ion; 14.5 μmol/g solution) The resulting composition was sonicated and gently heated to produce a clear solution. […] The sample cup was removed from the liquid nitrogen, 25 μl aqueous HCl (12 M) were added to the sample cup. […] The frozen solution was polarised under DNP conditions at 1.2 K in a 3.35 T magnetic field under irradiation with microwave (93.90 GHz). Polarisation was followed by solid state ^13C-NMR and the solid state polarisation was determined to be 35%.

The mark [3] stands for this setting: acidic preparation according to Example 1, after liquefaction and neutralization.
The mark [4] stands for this setting: basic preparation according to Example 2, after liquefaction and neutralization.
[5] abbreviates: acidic preparation according to Example 1, DNP at 1.2 K.
The mark [6] stands for this setting: basic preparation according to Example 2, DNP at 1.2 K.

Results on nine compounds are retold here after patent publication US20110008261A1, “METHOD TO PRODUCE HYPERPOLARISED AMINO ACIDS AND AMINOSULPHONIC ACIDS” (GE HEALTHCARE LIMITED, priority 2008, published 2011).

In the case of `NC(=O)CC[C@H](N)[13C](=O)O` [^13C1-glutamine], the Liquid state polarisation is 30% in series [1] (Example 2b, after 120 minutes DNP, dissolved in phosphate buffer, final pH 7, 400 MHz) and 6% in series [1] (setting [3]).
Consider `NC[13C](=O)O` [^13C1-glycine], for which the results for the Liquid state polarisation in series [1] (setting [3]) and in series [1] (setting [4]) were 16% and 18%, respectively. In addition, the Solid state polarisation in series [2] (setting [5]) is recorded as 16%; in series [2] (setting [6]) it was 19%.
For the compound `CC(N)[13C](=O)O` (stereo not drawn) [^13C1-alanine], the Liquid state polarisation in series [1] (Example 1c, after 150 minutes DNP, dissolved in phosphate buffer/NaOH, final pH 6.8, 400 MHz) is 35%; in series [1] (setting [4]), 16%. Besides, the Solid state polarisation in series [2] (setting [6]) is reported as 18%.
Compound `N[C@@H](CS)[13C](=O)O` [^13C1-cysteine] returned a Liquid state polarisation in series [1] (setting [3]) of 17%. The same compound registered a Solid state polarisation in series [2] (setting [5]) of 25%.
The compound `NC(=O)CCC(N)[13C](=O)[O-].[Na+]` (stereo not drawn) [Sodium ^13C1-2-amino-4-carbamoyl-butanoate] had a Solid state polarisation in series [2] (Example 2a, 4 M aqueous, 11 mM trityl radical, 0.4 mM Gd3+, 1.2 K) of 35%.
Consider `O=[13C](O)C1CCCN1` (stereo not drawn) [^13C1-proline], for which the Liquid state polarisation in series [1] (setting [3]) is listed as 16%.
Regarding `C[C@H](N)[13C](=O)O.Cl` [^13C1-alanine hydrochloride, ^13C1-alaninium chloride], in series [2] (Example 1b, 4 M in glycerol, 17 mM trityl radical, 0.9 mM Gd3+, 1.2 K), the Solid state polarisation turned out to be 40%.
In the case of `CC(C)C[C@H](N)[13C](=O)O` [^13C1-leucine], the Liquid state polarisation in series [1] (setting [4]) amounted to 21%. The compound further displayed a Solid state polarisation in series [2] (setting [6]) of 35%.
In the case of `CSCCC(N)[13C](=O)O` (stereo not drawn) [^13C1-methionine], the Liquid state polarisation in series [1] (setting [3]) is recorded as 26%. The same compound yielded a Solid state polarisation in series [2] (setting [5]) of 41%.
